Activity calls are given as the source filed them. The calls are words filed in the database; no cut-off is given here.
How the values were obtained:
[1] = Cytotoxicity against HEK293 cells after 72 hrs by MTT assay; format: cell-based; conditions: human
[2] = molecular target: T1, D-alanyl-D-alanine dipeptidase (Enterococcus faecium, UniProt Q06241); experiment: Inhibition of Enterococcus faecium VanX expressed in Escherichia coli BL21 (DE3) cells using D-alanyl-alpha-R-phenylthioglycine as substrate by colorimetric assay
T1 sequence (Q06241 whole entry): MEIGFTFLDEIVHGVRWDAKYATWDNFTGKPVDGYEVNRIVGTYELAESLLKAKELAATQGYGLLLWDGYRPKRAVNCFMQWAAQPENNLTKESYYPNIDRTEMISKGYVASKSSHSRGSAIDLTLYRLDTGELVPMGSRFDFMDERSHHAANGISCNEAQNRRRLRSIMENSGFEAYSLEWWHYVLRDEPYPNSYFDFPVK

Enterococcus faecium [3] = experiment: Antibacterial activity against vancomycin-resistant Enterococcus faecium E12-2 assessed as growth inhibition by checkerboard analysis; format: functional, organism-based
Enterococcus faecium [4] = experiment: Increase in vancomycin sensitivity in vancomycin-resistant Enterococcus faecium E12-2 assessed as reduction in vancomycin MIC at 72 ug/ml by checkerboard analysis; format: functional, organism-based
Enterococcus faecium [5] = experiment: Increase in vancomycin sensitivity in vancomycin-resistant Enterococcus faecium E12-2 assessed as reduction in vancomycin MIC at 212 ug/ml by checkerboard analysis; format: functional, organism-based

SMILES | CC50 at 72 h [1] | Ki [2] | inhibition (Enterococcus faecium [3]) | Activity (Enterococcus faecium [4]) | Activity (Enterococcus faecium [5])
CN[C@H](CC(C)C)C(=O)N[C@H]1C(=O)N[C@@H](CC(N)=O)C(=O)N[C@H]2C(=O)N[C@H]3C(=O)N[C@H](C(=O)N[C@H](C(=O)O)c4cc(O)cc(O)c4-c4cc3ccc4O)[C@H](O)c3ccc(c(Cl)c3)Oc3cc2cc(c3O[C@@H]2O[C@H](CO)[C@@H](O)[C@H](O)[C@H]2O[C@H]2C[C@](C)(N)[C@H](O)[C@H](C)O2)Oc2ccc(cc2Cl)[C@H]1O [VANCOMYCIN] | > 100 µM | – | – | – | –
CC(C)[C@H](CP(=O)(O)[C@@H](C)N)C(=O)O | – | 6.1 µM | – | – | –
C[C@@H](N)P(=O)(O)C[C@H](C(=O)O)c1ccccc1 | – | 2.9 µM | – | – | –
C[C@H](CP(=O)(O)[C@@H](C)N)C(=O)O | – | 1.5 µM | – | – | –
CC1(C)S[C@@H]2[C@H](NC(=O)[C@H](N)c3ccc(O)cc3)C(=O)N2[C@H]1C(=O)O [AMOXICILLIN] | 24 µM | – | – | – | –
O=C(N[C@@H](C(=O)O)c1ccccc1)c1cccc(=S)n1O | 64 µM | 2.74 µM | inactive | Active | –
C[C@@H](NC(=O)c1cccc(=S)n1O)C(=O)O | 76 µM | 6.84 µM | inactive | – | Active

— ChEMBL document CHEMBL3259752, “Cell permeable vanX inhibitors as vancomycin re-sensitizing agents” (Bioorg Med Chem Lett, 2014)
